Columns and labels:
[1] = SIN-1-induced ROS scavenging assay; conditions: 20 µM; SIN-1 as ROS generator; DCFH-DA probe
Text: The scavenging activities of the BABT derivatives 1–14 against ROS and peroxynitrite (ONOO^−) were investigated because the antioxidant activities of the compounds may modulate melanogenesis. To measure the ROS scavenging activities of BABT derivatives, 2′,7′-dichlorodihydrofluorescein diacetate (DCFH-DA) and 3-morpholinosydnonimine (SIN-1) were used as a fluorogenic probe and ROS generator, respectively. The reaction of DCFH-DA with esterase produces 2′,7′-dichlorodihydrofluorescein (DCFH), which generates the fluorescent compound 2′,7′-dichlorofluorescein (DCF) by reacting with ROS produced by SIN-1. Therefore, ROS scavenging activities were determined by measuring the DCF fluorescence remaining after the BABT derivatives scavenged the ROS generated by SIN-1. […] BABT derivatives and Trolox, the positive control, were used at a concentration of 20 µM.
The ROS scavenging activities of the BABT derivatives were measured using an oxidant-sensitive fluorescent probe. Derivatives or Trolox (10 µL; final concentration: 20 µM) were seeded in a black 96-well plate. Then, 10 µL of SIN-1 (10 µM) was added to induce radical species generation and mixed with 180 µL of sodium phosphate buffer (pH 7.4) containing 12.5 µM DCF-DA and 600 units of esterase. Fluorescence intensity was measured at emission and excitation wavelengths of 535 and 485 nm, respectively, using a fluorescence microplate reader (Berthold Technologies GmbH & Co., Wien, Austria). Trolox was used as the positive control.

B16F10 cells = assay: Cell viability (EZ-Cytox assay); type: cell-based, murine; conditions: 0, 1, 2, 5, 10, 20 µM, 72 h
Method: Before these experiments were performed, the influence of these derivatives on cytotoxicity in B16F10 cells was examined to determine their optimal concentration range for B16F10 cell experiments. The cytotoxicity of derivatives 7 and 8 at six concentrations (0, 1, 2, 5, 10, and 20 µM) was assessed using the EZ-Cytox assay.
Cytotoxicity assays in B16F10 cells were performed using the EZ-Cytox solution (EZ-3000, DoGenBio, Seoul, Republic of Korea). Briefly, B16F10 cells were seeded at a density of 1 × 10^4 cells per well and cultured at 37 °C in a 5% CO2 atmosphere for 24 h. […] Then, the EZ-Cytox solution (10 μL aliquot) was added to each well. After 2 h of incubation at 37 °C, the optical density of each well was measured at 450 nm using a microplate reader (VersaMax; Molecular Devices).

tyrosinase = assay: Western blotting of tyrosinase protein expression; type: cell-based, murine
Method: We investigated whether, in addition to the direct inhibition of tyrosinase, another inhibitory mechanism of melanogenesis by derivative 8 may be related to the expression of proteins involved in melanogenesis. For the Western blotting experiment, B16F10 cells were treated with α-MSH (1 µM) plus IBMX (200 µM), leading to a 1.7- and 4.9-fold increase in expression levels of melanogenesis-associated proteins tyrosinase and MITF, compared to those in the untreated control (100%) (Figure 13).
B16F10 cells were seeded in a 60 mm dish at a density of 5 × 10^5 cells/mL for 24 h, washed with cold PBS, and harvested. Cytosolic and nuclear fractions of cell lysates were extracted using lysis buffer, as described previously. Protein concentrations in the cell lysates were estimated using the BCA protein assay (Pierce, Rockford, IL, USA). […] The membranes were washed and protein bands detected using the SuperSignal West Pico Chemiluminescence assay kit (Advansta, San Jose, CA, USA) and the Davinch–Chem program (Davinch-K, Seoul, Republic of Korea). Immunoblotting data were quantified using CS Analyzer 3.2 (Densitograph) image analysis software (http://www.attokorea.co.kr, accessed on 21 November 2022).

[2] = Peroxynitrite scavenging assay; conditions: 20 µM; SIN-1 as generator; DHR123 probe
Method: The effects of the BABT derivatives on peroxynitrite scavenging activities were also examined using SIN-1 as an RNS generator and dihydrorhodamine (DHR123) as an ROS indicator. DHR123 was converted to fluorescent rhodamine 123 by peroxynitrite generated by SIN-1. Therefore, the peroxynitrite scavenging activities of 1–14 were assessed by measuring the fluorescence of rhodamine 123. BABT derivatives and penicillamine, the positive control, were used at a concentration of 20 µM.
The peroxynitrite scavenging activities of the BABT derivatives were assessed using the method developed by Kooy, involving the monitoring of highly fluorescent rhodamine 123, which was rapidly produced from non-fluorescent DHR123 in the presence of peroxynitrite. Rhodamine buffer (pH 7.4) was composed of 50 mM sodium phosphate dibasic, 50 mM sodium phosphate monobasic, 90 mM sodium chloride, 5 mM potassium chloride, and 100 µM DTPA. A 10 µL aliquot of BABT derivatives or PCA (final concentration: 20 µM) was seeded in a black 96-well plate. Then, 10 µL of SIN-1 (10 µM) was added to induce radical species generation and mixed with 180 µL of rhodamine buffer. Fluorescence intensity was measured at emission and excitation wavelengths of 535 and 485 nm, respectively, using a fluorescence microplate reader (Berthold Technologies GmbH & Co.). PCA was used as the positive control.

For O=C1N=C(NCc2ccccc2)S/C1=C\c1ccc(O)cc1O [Compound 8, (Z)-2-(benzylamino)-5-(2,4-dihydroxybenzylidene)thiazol-4(5H)-one], the “ROS scavenging activity (in words)” value [1] was “did not show significant ROS scavenging effect”, the cytotoxicity (B16F10 cells) was “no cytotoxicity until 72 h at all tested concentrations” and the “relative expression level of tyrosinase protein” value (tyrosinase; 10 µM, α-MSH plus IBMX treated B16F10 cells) was “lowered the protein expression to the same or lower control levels”. For the same molecule, the “relative expression level of tyrosinase protein” value (tyrosinase; 5, 10 and 20 µM, α-MSH (1 µM) plus IBMX (200 µM) treated B16F10 cells) was “significantly reduced the relative expression levels of tyrosinase and MITF in a dose-dependent manner” and the “peroxynitrite scavenging activity (in words)” value [2] was “scavenged peroxynitrite more potently than did penicillamine”.
